Test results: US20190069550A1, “HERBICIDAL COMPOSITIONS CONTAINING PYRIDINE CARBOXYLIC ACIDS OR DERIVATIVES THEREOF, WITH PDS AND VLCFA INHIBITORS, OR DERIVATIVES THEREOF” (Dow AgroSciences LLC, priority 2017, published 2019)
Several values for one entry are separate records, joined by “and”; a condition that tells them apart may be missing. Equal values may be shown once.

Tests used:
Format in all cases: in vivo
Conditions in all cases: 20-22 d
[1] = tested on: Abutilon theophrasti (velvetleaf); test: Postemergence herbicidal activity, greenhouse, ABUTH
Protocol: (§1) Seeds of the desired test plant species were planted in Sun Gro MetroMix® 360 planting mixture, which typically has a pH of 6.0 to 6.8 and an organic matter content of about 30 percent, in plastic pots with a surface area of 103.2 square centimeters (cm^2). When required to ensure good germination and healthy plants, a fungicide treatment and/or other chemical or physical treatment was applied. The plants were grown for 7-36 days (d) in a greenhouse with an approximate 14-hour (h) photoperiod which was maintained at about 23° C. during the day and 22° C. during the night. Nutrients and water were added on a regular basis and supplemental lighting was provided with overhead metal halide 1000-Watt lamps as necessary. The plants were employed for testing when they reached the second or third true leaf stage.
(§2) Weighed amounts of technical material were dissolved in a volume of 97:3 volume per volume (v/v) acetone/dimethyl sulfoxide (DMSO) to make stock solutions. […] The concentrated stock solutions were diluted with an aqueous mixture of 1.5% v/v of Agri-dex crop oil concentrate to provide the appropriate application rates. […]
(§3) The treated plants and control plants were placed in a greenhouse as described above and watered by sub-irrigation to prevent wash-off of the test compounds. After 20-22 d, the condition of the test plants as compared with that of the control plants was determined visually and scored on a scale of 0 to 100 percent where 0 corresponds to no injury and 100 corresponds to complete kill. The condition of the test plants was compared with that of the control plants as determined visually and scored on a scale of 0 to 100 percent, where 0 corresponds to no injury and 100 corresponds to complete kill. […]
(§4) Compound 1 was formulated as an EC and was combined with phytoene desaturase inhibitor herbicides, very long chain fatty acid inhibitor herbicides, or mixtures thereof, and applied to weeds, and the phytotoxicity of the herbicidal composition was measured. […]

[2] = tested on: Amaranthus retroflexus (pigweed); test: Postemergence herbicidal activity, greenhouse, AMARE
Protocol: as §1, §2, §3, §4

[3] = tested on: Brassica napus (spring rape); test: Postemergence herbicidal activity, greenhouse, BRSNN
Protocol: as §1, §2, §3, §4

[4] = tested on: Cirsium arvense (thistle); test: Postemergence herbicidal activity, greenhouse, CIRAR
Protocol: as §1
(§5) Weighed amounts of technical material were dissolved in a volume of 97:3 volume per volume (v/v) acetone/dimethyl sulfoxide (DMSO) to make stock solutions. […] The concentrated stock solutions were diluted with an aqueous mixture of 1.5% v/v of Agri-dex crop oil concentrate to provide the appropriate application rates. Compound requirements are based upon a 12 milliliter (mL) application volume at a rate of 187 liters per hectare (UJha). Spray solutions of the experimental compound mixtures were prepared by adding the stock solutions to the appropriate amount of dilution solution to form a 12 mL spray solution in two-way combinations. Formulated compounds were applied to the plant material with an overhead Mandel track sprayer equipped with 8002E nozzles calibrated to deliver 187 L/ha over an application area of 0.503 square meters (m^2) at a spray height of 18 inches ([…] (cm)) above average plant canopy. Control plants were sprayed in the same manner with the solvent blank. Application rates for component (a) are in g ae/ha, and application rates for component (b) are in g ai/ha.
as §3, §4

[5] = tested on: Chenopodium album L. (common lambsquarters); test: Postemergence herbicidal activity, greenhouse, CHEAL
Protocol: as §1, §5, §3, §4

[6] = tested on: Cyperus esculentus (nutsedge); test: Postemergence herbicidal activity, greenhouse, CYPES
Protocol: When required to ensure good germination and healthy plants, a fungicide treatment and/or other chemical or physical treatment was applied. The plants were grown for 7-36 days (d) in a greenhouse with an approximate 14-hour (h) photoperiod which was maintained at about 23° C. during the day and 22° C. during the night. Nutrients and water were added on a regular basis and supplemental lighting was provided with overhead metal halide 1000-Watt lamps as necessary. The plants were employed for testing when they reached the second or third true leaf stage. Weighed amounts of technical material were dissolved in a volume of 97:3 volume per volume (v/v) acetone/dimethyl sulfoxide (DMSO) to make stock solutions. […] The concentrated stock solutions were diluted with an aqueous mixture of 1.5% v/v of Agri-dex crop oil concentrate to provide the appropriate application rates. Compound requirements are based upon a 12 milliliter (mL) application volume at a rate of 187 liters per hectare (UJha). Spray solutions of the experimental compound mixtures were prepared by adding the stock solutions to the appropriate amount of dilution solution to form a 12 mL spray solution in two-way combinations. […] Control plants were sprayed in the same manner with the solvent blank. Application rates for component (a) are in g ae/ha, and application rates for component (b) are in g ai/ha. The treated plants and control plants were placed in a greenhouse as described above and watered by sub-irrigation to prevent wash-off of the test compounds. […] Colby's equation was used to determine the herbicidal effects expected from the mixtures. Compound 1 was formulated as an EC and was combined with phytoene desaturase inhibitor herbicides, very long chain fatty acid inhibitor herbicides, or mixtures thereof, and applied to weeds, and the phytotoxicity of the herbicidal composition was measured. […]

[7] = tested on: Digitaria sanguinalis (large crabgrass); test: Postemergence herbicidal activity, greenhouse, DIGSA
Protocol: as §1, with “The plants were employed for testing when they reached the second or third true leaf stage.” left out
as §3

[8] = tested on: Echinochloa crus-galli (barnyardgrass); test: Postemergence herbicidal activity, greenhouse, ECHCG
Protocol: as §1, §2, §3, §4

[9] = tested on: Euphorbia heterophylla (poinsettia); test: Postemergence herbicidal activity, greenhouse, EPHHL
Protocol: as §1, §5
The treated plants and control plants were placed in a greenhouse as described above and watered by sub-irrigation to prevent wash-off of the test compounds. After 20-22 d, the condition of the test plants as compared with that of the control plants was determined visually and scored on a scale of 0 to 100 percent where 0 corresponds to no injury and 100 corresponds to complete kill. The condition of the test plants was compared with that of the control plants as determined visually and scored on a scale of 0 to 100 percent, where 0 corresponds to no injury and 100 corresponds to complete kill. Colby's equation was used to determine the herbicidal effects expected from the mixtures.
as §4

[10] = tested on: Ipomoea hederacea (ivyleaf morningglory); test: Postemergence herbicidal activity, greenhouse, IPOHE
Protocol: as §1, §2, §3, §4

Kochia scoparia (kochia) = test: Postemergence herbicidal activity, greenhouse, KCHSC
Protocol: as §1, §2, §3, §4

Oryza sativa (rice) = test: Postemergence crop injury, greenhouse, ORYSA
Protocol: as §1, with “The plants were employed for testing when they reached the second or third true leaf stage.” left out
as §3

[11] = tested on: Polygonum convolvulus (wild buckwheat); test: Postemergence herbicidal activity, greenhouse, POLCO
Protocol: as §1, §2, §3, §4

[12] = tested on: Sorghum vulgare (grain sorghum); test: Postemergence herbicidal activity, greenhouse, SORVU
Protocol: as §1, §2, §3, §4

[13] = tested on: Stellaria media (chickweed); test: Postemergence herbicidal activity, greenhouse, STEME
Protocol: as §1, with “The plants were employed for testing when they reached the second or third true leaf stage.” left out
as §3

[14] = tested on: Triticum aestivum (winter wheat); test: Postemergence crop injury, greenhouse, TRZAW
Protocol: as §1, §2, §3, §4

[15] = tested on: Veronica hederifolia (ivyleaf speedwell); test: Postemergence herbicidal activity, greenhouse, VERHE
Protocol: as §1, with “The plants were employed for testing when they reached the second or third true leaf stage.” left out
as §3

[16] = tested on: Viola tricolor (wild pansy); test: Postemergence herbicidal activity, greenhouse, VIOTR
Protocol: as §1, §2, §3, §4

Zea mays (maize/corn) = test: Postemergence crop injury, greenhouse, ZEAMX
Protocol: as §1, §2, §3, §4

Compound: Nc1c(F)c(-c2ccc3cc[nH]c3c2F)nc(C(=O)O)c1Cl [Compound 1]
- % Visual Injury ([1]; 10 g ae/ha): 50%
- % Visual Injury ([2]; 5 g ae/ha): 93% and 65%
- % Visual Injury ([3]; 5 g ae/ha): 50%
- % Visual Injury ([4]; 10 g ae/ha): 60%
- % Visual Injury ([5]; 5 g ae/ha): 90% and 80%
- % Visual Injury ([5]; 10 g ae/ha): 95%
- % Visual Injury ([6]; 5 g ae/ha): 10%
- % Visual Injury ([7]; 5 g ae/ha): 0%
- % Visual Injury ([8]; 5 g ae/ha): 60%
- % Visual Injury ([9]; 5 g ae/ha): 97% and 75%
- % Visual Injury ([9]; 10 g ae/ha): 100%
- % Visual Injury ([10]; 5 g ae/ha): 20%
- % Visual Injury (Kochia scoparia (kochia); 5 g ae/ha): 65%
- % Visual Injury (Oryza sativa (rice); 5 g ae/ha): 0%
- % Visual Injury ([11]; 5 g ae/ha): 70%
- % Visual Injury ([12]; 5 g ae/ha): 60%
- % Visual Injury ([13]; 5 g ae/ha): 65%
- % Visual Injury ([14]; 5 g ae/ha): 10%
- % Visual Injury ([15]; 5 g ae/ha): 40%
- % Visual Injury ([16]; 5 g ae/ha): 10% and 5%
- % Visual Injury (Zea mays (maize/corn); 5 g ae/ha): 10%

Compound: O=C(Nc1ccc(F)cc1F)c1cccnc1Oc1cccc(C(F)(F)F)c1 [Diflufenican, N-(2,4-difluorophenyl)-2-[3-(trifluoromethyl)phenoxy]-3-pyridinecarboxamide]
- % Visual Injury ([1]; diflufenican 50 g ai/ha): 0%
- % Visual Injury ([3]; diflufenican 50 g ai/ha): 20%
- % Visual Injury ([4]; diflufenican 50 g ai/ha): 20%
- % Visual Injury ([6]; diflufenican 50 g ai/ha): 0%
- % Visual Injury ([7]; diflufenican 50 g ai/ha): 10%
- % Visual Injury ([8]; diflufenican 50 g ai/ha): 0%
- % Visual Injury ([9]; diflufenican 50 g ai/ha): 10%
- % Visual Injury ([10]; diflufenican 50 g ai/ha): 0%
- % Visual Injury (Kochia scoparia (kochia); diflufenican 50 g ai/ha): 10%
- % Visual Injury (Oryza sativa (rice); diflufenican 50 g ai/ha): 0%
- % Visual Injury ([11]; diflufenican 50 g ai/ha): 10%
- % Visual Injury ([12]; diflufenican 50 g ai/ha): 0%
- % Visual Injury ([14]; diflufenican 50 g ai/ha): 0%
- % Visual Injury (Zea mays (maize/corn); diflufenican 50 g ai/ha): 5%

Compound: CC(C)N(C(=O)COc1nnc(C(F)(F)F)s1)c1ccc(F)cc1 [Flufenacet, N-(4-fluorophenyl)-N-(1-methylethyl)-2-[[5-(trifluoromethyl)-1,3,4-thiadiazol-2-yl]oxy]acetamide]
- % Visual Injury ([1]; flufenacet 60 g ai/ha): 0%
- % Visual Injury ([4]; flufenacet 60 g ai/ha): 0%
- % Visual Injury ([5]; flufenacet 60 g ai/ha): 10%
- % Visual Injury ([9]; flufenacet 60 g ai/ha): 0%

Compound: O=C(Nc1ccc(F)cc1)c1cccc(Oc2cccc(C(F)(F)F)c2)n1 [Picolinafen, N-(4-fluorophenyl)-6-[3-(trifluoromethyl)phenoxy]-2-pyridinecarboxamide]
- % Visual Injury ([2]; picolinafen 12.5 g ai/ha): 20%
- % Visual Injury ([3]; picolinafen 12.5 g ai/ha): 25%
- % Visual Injury ([4]; picolinafen 12.5 g ai/ha): 10%
- % Visual Injury ([6]; picolinafen 12.5 g ai/ha): 0%
- % Visual Injury ([8]; picolinafen 12.5 g ai/ha): 10%
- % Visual Injury ([10]; picolinafen 12.5 g ai/ha): 5%
- % Visual Injury ([11]; picolinafen 12.5 g ai/ha): 0%
- % Visual Injury ([12]; picolinafen 12.5 g ai/ha): 0%
- % Visual Injury ([14]; picolinafen 12.5 g ai/ha): 0%
- % Visual Injury ([16]; picolinafen 12.5 g ai/ha): 10%
- % Visual Injury (Zea mays (maize/corn); picolinafen 12.5 g ai/ha): 5%

Compound: Cn1nc(C(F)(F)F)c(CS(=O)(=O)C2=NOC(C)(C)C2)c1OC(F)F [Pyroxasulfone, 3-[[[5-(difluoromethoxy)-1-methyl-3-(trifluoromethyl)-1H-pyrazol-4-yl]methyl]sulfonyl]-4,5-dihydro-5,5-dimethylisoxazole]
- % Visual Injury ([2]; pyroxasulfone 100 g ai/ha): 0%
- % Visual Injury ([5]; pyroxasulfone 100 g ai/ha): 10%
- % Visual Injury ([9]; pyroxasulfone 100 g ai/ha): 0%
- % Visual Injury (Kochia scoparia (kochia); pyroxasulfone 100 g ai/ha): 0%
- % Visual Injury ([13]; pyroxasulfone 100 g ai/ha): 40%
- % Visual Injury ([15]; pyroxasulfone 100 g ai/ha): 0%
- % Visual Injury ([16]; pyroxasulfone 100 g ai/ha): 0%
